US8440814B2, “Derivatives of cyclodextrins, process for their preparation and their use in particular for solubilizing pharmacologically active substances” (Centre National de la Recherche Scientifique, priority 2003, dated 2013)
“And” between values parts separate entries of the source, which are not always exact repeats. Equal values may be shown once. Read-outs that look alike come from different tables or passages of the source.

Tests used:
[1] = molecular target: concanavalin A (ConA) lectin (Canavalia ensiformis, UniProt P02866); type: binding
Description: The affinity of the thioureidocysteaminyl-cyclodextrins of the invention for specific membrane lectins was evaluated in vitro following the ELLA (Enzyme-Linked Lectin Assay) protocol. […] 2002, 102, pp. 555-578. This technique measures the capacity of a soluble mono- or oligosaccharide ligand to inhibit the association between a complementary lectin and another reference ligand fixed to a plastic support microplate.
The IC50 values are inversely proportional to the respective affinities.
The cells of a microtitre plate (Nunc-Immuno™ plates, MaxiSorp™) are loaded with 100 μL of a stock solution of yeast mannan (Sigma, 10 μg·mL^−1) in a saline phosphate buffer solution (PBS; pH 7.3 containing Ca^2+ 0.1 mM and Mn^2+ 0.1 mM) for one night at ambient temperature. The cells are washed (3×300 μL) with a buffer solution containing 0.05% (v/v) of Tween 20 (PBST). This washing protocol is repeated after each incubation during the test. A bovine serum albumin solution (BSA, 1%) in PBS (150 μL/cell) is then added to the cells followed by incubation for 1 hour at 37° C., then washed.
In order to determine the optimal lectin concentration for inhibition studies, 100 μL of a series of concanavalin A solutions marked with radish peroxidase of 10^−1 to 10^−5 mg·mL^−1 in PBS is added to the cells loaded with mannan, and treated as indicated above. After incubation at 37° C. for 1 hour, the plates are washed (PBST) and a solution (50 μL) of the diammonium salt of 2,2′-azinobis(3-ethylbenzothiazoline-6-sulphonic) acid (ABTS, 1 mg in 4 mL) in citrate buffer (0.2 M, pH 4.0 with 0.015% hydrogen peroxide) is added. The reaction is stopped after 20 minutes by adding 50 μL/cell of sulphuric acid 1 M and the absorbances are measured at 415 nm using an ELISA reader. The control cells contained citrate-phosphate buffer.
In a series of experiments ConA marked with radish peroxidase in an appropriate concentration as indicated above (60 μL/cell) is added to the solutions of each compound (60 μL/cell) in PBS sequentially diluted twice, in a Nunclon™ (Delta) microtitre plate which is incubated at 37° C. for 1 hour. The solutions (100 μL/cell) are then transferred onto a microtitre plate loaded with mannan and treated as indicated above, which is then incubated at 37° C. for 1 hour. The cells are washed (PBST) and the ABTS solution (50 μL/cell) is added. After 20 minutes, the reaction is stopped (sulphuric acid) and the absorbances are measured. The percentage of inhibition is calculated with the formula: […]

[2] = as described in WO 95/19994; cited from earlier work
[3] = solubility in water; type: physicochemical
[4] = solubilization of Taxotere in water by inclusion in the cyclodextrin derivative; type: physicochemical; conditions: 50 mmol·L^−1 of compound in sterile water; for solubility of the Taxotere in a solution of the compound: stirred at 70° C., stays in solution at ambient temperature
From the text: These inclusion complexes can be prepared for example by adding to a solution or a suspension of the compound of the invention of formula (I) the pharmacologically active molecule in solution or in the pure state. The inclusion complex thus formed can be isolated by freeze-drying.
In the case of the compounds of the taxol family, such as Taxotere®, it is also possible to disperse this product in the pure state in a sterile solution of a compound according to the invention.
Starting with Taxotere in the pure state, 2.1 mg ([…]) of this product is dispersed in 1 mL of a solution containing 50 mmol·L^−1 of compound No. 1 in sterile water, then the suspension obtained is stirred at 70° C. until a clear solution is obtained which indicates the complexing of the Taxotere.

For “heptakis[6-S-[2-N′-[2-[5-(1-thio-α-D-manno pyranosyl)-2-oxapentyl]-2,2-bis[5-(1-thio-β-D-glucopyranosyl)-2-oxapentyl]ethyl]thioureido]ethyl-6-thio]cyclomaltoheptaose [Compound No. 6]”, the Relative affinity [1] was 48, the Relative molar affinity [1] was 6.9 and the “recognition by ConA (in words)” value [1] was “not recognized by ConA”.

In the case of “6^I-S-α-maltosyl-6^I-thiocyclomaltoheptaose”, the “solubility in water of Taxotere on adding the cyclodextrin derivative to its aqueous suspension” value [2] is given as “up to 6.5 g/L”.

In the case of `Cl.Cl.Cl.Cl.Cl.Cl.Cl.NCCSC[C@H]1O[C@@H]2O[C@H]3[C@H](O)[C@@H](O)[C@@H](O[C@H]4[C@H](O)[C@@H](O)[C@@H](O[C@H]5[C@H](O)[C@@H](O)[C@@H](O[C@H]6[C@H](O)[C@@H](O)[C@@H](O[C@H]7[C@H](O)[C@@H](O)[C@@H](O[C@H]8[C@H](O)[C@@H](O)[C@@H](O[C@H]1[C@H](O)[C@H]2O)O[C@@H]8CSCCN)O[C@@H]7CSCCN)O[C@@H]6CSCCN)O[C@@H]5CSCCN)O[C@@H]4CSCCN)O[C@@H]3CSCCN` [Compound No. 1, heptakis[6-S-(2-aminoethyl-6-thio)]cyclomalto heptaose heptahydrochloride], the solubility in water [3] is reported as 500 g·L^−1 and 323 mmol·L^−1, the “increase in the solubility of the Taxotere versus absence of cyclodextrin” value [4] is reported as roughly 525 times and the “solubility of the Taxotere in a solution of the compound” value [4] is reported as 2100 µg/mL.

In the case of “heptakis[6-S-[2-N′-[2,2,2-tris[5-(1-thio-α-D-mannopyranosyl)-2-oxapentyl]ethyl]thioureido]ethyl-6-thio]cyclomaltoheptaose [Compound No. 4]”, the Relative affinity [1] is reported as 173, the Relative molar affinity [1] is reported as 8.2 and the “increase in the solubility of the Taxotere versus absence of cyclodextrin” value [4] is reported as roughly 500 times. The “solubility of the Taxotere in a solution of the compound” value [4] was 2000 µg/mL.

`COC1OC(CO)C(O)C(O)C1O` [Me-α-D-Glcp, methyl-α-D-glucopyranoside, reference compound] showed a Relative affinity ([1]; relative to Me-α-D-Glcp = 1) of 1 and a Relative molar affinity ([1]; relative to Me-α-D-Glcp = 1) of 1.

With `OC[C@H]1O[C@H](OCC(CO[C@H]2O[C@H](CO)[C@@H](O)[C@H](O)[C@@H]2O)(CO[C@H]2O[C@H](CO)[C@@H](O)[C@H](O)[C@@H]2O)NC(=S)NCCSC[C@H]2O[C@@H]3O[C@H]4[C@H](O)[C@@H](O)[C@@H](O[C@H]5[C@H](O)[C@@H](O)[C@@H](O[C@H]6[C@H](O)[C@@H](O)[C@@H](O[C@H]7[C@H](O)[C@@H](O)[C@@H](O[C@H]8[C@H](O)[C@@H](O)[C@@H](O[C@H]9[C@H](O)[C@@H](O)[C@@H](O[C@H]2[C@H](O)[C@H]3O)O[C@@H]9CSCCNC(=S)NC(CO[C@H]2O[C@H](CO)[C@@H](O)[C@H](O)[C@@H]2O)(CO[C@H]2O[C@H](CO)[C@@H](O)[C@H](O)[C@@H]2O)CO[C@H]2O[C@H](CO)[C@@H](O)[C@H](O)[C@@H]2O)O[C@@H]8CSCCNC(=S)NC(CO[C@H]2O[C@H](CO)[C@@H](O)[C@H](O)[C@@H]2O)(CO[C@H]2O[C@H](CO)[C@@H](O)[C@H](O)[C@@H]2O)CO[C@H]2O[C@H](CO)[C@@H](O)[C@H](O)[C@@H]2O)O[C@@H]7CSCCNC(=S)NC(CO[C@H]2O[C@H](CO)[C@@H](O)[C@H](O)[C@@H]2O)(CO[C@H]2O[C@H](CO)[C@@H](O)[C@H](O)[C@@H]2O)CO[C@H]2O[C@H](CO)[C@@H](O)[C@H](O)[C@@H]2O)O[C@@H]6CSCCNC(=S)NC(CO[C@H]2O[C@H](CO)[C@@H](O)[C@H](O)[C@@H]2O)(CO[C@H]2O[C@H](CO)[C@@H](O)[C@H](O)[C@@H]2O)CO[C@H]2O[C@H](CO)[C@@H](O)[C@H](O)[C@@H]2O)O[C@@H]5CSCCNC(=S)NC(CO[C@H]2O[C@H](CO)[C@@H](O)[C@H](O)[C@@H]2O)(CO[C@H]2O[C@H](CO)[C@@H](O)[C@H](O)[C@@H]2O)CO[C@H]2O[C@H](CO)[C@@H](O)[C@H](O)[C@@H]2O)O[C@@H]4CSCCNC(=S)NC(CO[C@H]2O[C@H](CO)[C@@H](O)[C@H](O)[C@@H]2O)(CO[C@H]2O[C@H](CO)[C@@H](O)[C@H](O)[C@@H]2O)CO[C@H]2O[C@H](CO)[C@@H](O)[C@H](O)[C@@H]2O)[C@@H](O)[C@@H](O)[C@@H]1O` [Compound No. 3, heptakis[6-S-[2-N′-tris(α-D-mannopyranosyloxymethyl)methylthioureido]ethyl-6-thio]cyclomaltoheptaose] the Relative affinity [1] was 41 and the Relative molar affinity [1] was 2.0.

For `OCC1OC(NC(=S)NCC2OC3OC4C(CNC(=S)NC5OC(CO)C(O)C(O)C5O)OC(OC5C(CNC(=S)NC6OC(CO)C(O)C(O)C6O)OC(OC6C(CNC(=S)NC7OC(CO)C(O)C(O)C7O)OC(OC7C(CNC(=S)NC8OC(CO)C(O)C(O)C8O)OC(OC8C(CNC(=S)NC9OC(CO)C(O)C(O)C9O)OC(OC9C(CNC(=S)NC%10OC(CO)C(O)C(O)C%10O)OC(OC2C(O)C3O)C(O)C9O)C(O)C8O)C(O)C7O)C(O)C6O)C(O)C5O)C(O)C4O)C(O)C(O)C1O` [heptakis(6-deoxy-6-α-D-mannopyranosylthioureido)cyclomaltoheptaose, reference compound], the “inhibition of the association between concanavalin A and yeast mannan” value ([1]; 175 µM) was 8%.

In the case of “heptakis[6-S-[2-N′-[2,2-bis[5-(1-thio-α-D-mannopyranosyl)-2-oxapentyl]-2-[5-(1-thio-β-D-glucopyranosyl)-2-oxapentyl]ethyl]thioureido]ethylthio]cyclomaltoheptaose [Compound No. 7]”, the Relative affinity [1] is reported as 67 and the Relative molar affinity [1] is reported as 4.8.

For `OC[C@H]1O[C@H](NC(=S)NCCSC[C@H]2O[C@@H]3O[C@H]4[C@H](O)[C@@H](O)[C@@H](O[C@H]5[C@H](O)[C@@H](O)[C@@H](O[C@H]6[C@H](O)[C@@H](O)[C@@H](O[C@H]7[C@H](O)[C@@H](O)[C@@H](O[C@H]8[C@H](O)[C@@H](O)[C@@H](O[C@H]9[C@H](O)[C@@H](O)[C@@H](O[C@H]2[C@H](O)[C@H]3O)O[C@@H]9CSCCNC(=S)N[C@H]2O[C@H](CO)[C@@H](O)[C@H](O)[C@@H]2O)O[C@@H]8CSCCNC(=S)N[C@H]2O[C@H](CO)[C@@H](O)[C@H](O)[C@@H]2O)O[C@@H]7CSCCNC(=S)N[C@H]2O[C@H](CO)[C@@H](O)[C@H](O)[C@@H]2O)O[C@@H]6CSCCNC(=S)N[C@H]2O[C@H](CO)[C@@H](O)[C@H](O)[C@@H]2O)O[C@@H]5CSCCNC(=S)N[C@H]2O[C@H](CO)[C@@H](O)[C@H](O)[C@@H]2O)O[C@@H]4CSCCNC(=S)N[C@H]2O[C@H](CO)[C@@H](O)[C@H](O)[C@@H]2O)[C@@H](O)[C@@H](O)[C@@H]1O` [Compound No. 2], the IC50 [1] was 175 µM, the Relative affinity [1] was 4.9 and the Relative molar affinity [1] was 0.7.
